Experimental findings from US20230012368A1 (Hoffmann-La Roche Inc., priority 2018, published 2023) are described below.

The assay deals with Acinetobacter baumannii ATCC 17978. As to the kind of experiment: Antimicrobial susceptibility testing: 90% growth inhibitory concentration (IC90) determination. It counts as cell-based. As to conditions: 90% growth inhibitory concentration, Acinetobacter baumannii ATCC17978, Iso-Sensitest broth, OD 600 nm over 16h, read-out: ATCC17978 IC90. The method in brief:
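Growth of the Acinetobacter baumannii strain was followed by optical density at 600 nm every 20 minutes for 16h at 35±2° C. Inoculum was ~5×10^(5) CFU/ml in Iso-Sensitest medium, with twofold compound dilutions (e.g. 50 to 0.097 μM final). The 90% inhibitory concentration was derived in log-phase growth.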

Setting [1] is: Acinetobacter baumannii, ATCC17978, 16 h.

Counter-ions that a name gives are not always drawn. Like-named read-outs stand apart in the source and are kept apart here.

By IC90 is commonly meant the point of the concentration-response curve where the effect stands at 90%.

For the compound `CCc1cc(Nc2nccn3c(-c4ccc(OC(F)F)c(F)c4F)cnc23)ccc1C(=O)NCCNC(=O)[C@@H](N)CCCNC(=N)N` [Example 333, N-[2-[[(2S)-2-amino-5-carbamimidamidopentanoyl]amino]ethyl]-4-[[3-[4-(difluoromethoxy)-2,3-difluorophenyl]imidazo[1,2-a]pyrazin-8-yl]amino]-2-ethylbenzamide;formic acid], the IC90 under setting [1] turned out to be 340 nM. Regarding `CCc1cc(Nc2nccn3c(-c4ccc(OCC#N)c(F)c4F)cnc23)ccc1C(=O)NCCNC(=O)[C@@H](N)[C@@H](C)O` [Example 138, N-[2-[[(2S,3R)-2-amino-3-hydroxy-butanoyl]amino]ethyl]-4-[[3-[4-(cyanomethoxy)-2,3-difluoro-phenyl]imidazo[1,2-a]pyrazin-8-yl]amino]-2-ethyl-benzamide formate], the IC90 under setting [1] was found to be 100 nM. For the compound `CCc1cc(Nc2nccn3c(-c4ccc(OC(F)F)c(F)c4F)cnc23)ccc1C(=O)NCCCN1CCCC1` [Example 95, 4-((3-(4-(difluoromethoxy)-2,3-difluorophenyl)imidazo [1,2-a]pyrazin-8-yl)amino)-2-ethyl-N-(3-(pyrrolidin-1-yl)propyl)benzamide], under setting [1], the IC90 is 190 nM.

As for `CCc1cc(Nc2nccn3c(-c4ccc(OC)c(F)c4F)cnc23)ccc1C(=O)NCC1CCN(Cc2cccnc2)CC1` [Example 554, 4-[[3-(2,3-difluoro-4-methoxy-phenyl)imidazo[1,2-a]pyrazin-8-yl]amino]-2-ethyl-N-[[1-(3-pyridylmethyl)-4-piperidyl]methyl]benzamide], the IC90 under setting [1] was found to be 170 nM.

Take `CCc1cc(Nc2nccn3c(-c4ccc(OC)c(F)c4F)cnc23)ccc1C(=O)NCC1CCNCC1` [Example 543, 4-((3-(2,3-difluoro-4-methoxyphenyl)imidazo[1,2-a]pyrazin-8-yl)amino)-2-ethyl-N-(piperidin-4-ylmethyl)benzamide formate]: under setting [1], the concentration for an effect of 90% (IC90) amounted to 66 nM.

With `COc1ccc(-c2cnc3c(Nc4ccc(C(=O)NCCCN(C)C)cc4)nccn23)cc1Cl` [Example 263, 4-[[3-(3-chloro-4-methoxyphenyl)imidazo[1,2-a]pyrazin-8-yl]amino]-N-[3-(dimethylamino)propyl]benz-amide], the IC90 under setting [1] was 5000 nM. For the compound `COC(=O)[C@H](CCCCNC(=O)c1ccc(Nc2nccn3c(-c4ccc(OC(F)F)cc4)cnc23)cc1C)NC(=O)OC(C)(C)C` [Example 245, methyl (2S)-6-[[4-[[3-[4-(difluoromethoxy)phenyl]im-idazo[1,2-a]pyrazin-8-yl]amino]-2-methylbenzoyl]amino]-2-[(2-methylpropan-2-yl)oxycarbonylamino]hexa-noate], the IC90 under setting [1] was 2200 nM. On the same count and under the same terms, to `C=Cc1cc(Nc2nccn3c(-c4ccc(OC(F)F)cc4)cnc23)ccc1C(=O)N(C)CCN1CCNCC1` [Example 217, 4-[[3-[4-(difluoromethoxy)phenyl]im-idazo[1,2-a]pyrazin-8-yl]amino]-2-ethenyl-N-methyl-N-(2-piperazin-1-ylethyl)benzamide;hydrochlo-ride] belongs 840 nM; to `CCc1cc(Nc2nccn3c(-c4ccc(OC)c(F)c4F)cnc23)ccc1C(=O)NCC(O)CNC(=O)[C@@H](N)CCNC(=N)N` (mixture of isomers) [Example 416, rac-N-(3-((R)-2-amino-4-guanidinobutanamido)-2-hydroxypropyl)-4-((3-(2,3-difluoro-4-methoxyphenyl)imidazo[1,2-a]pyrazin-8-yl)amino)-2-ethylbenzamide diformate], 240 nM; to `CCc1cc(Nc2nccn3c(-c4ccc(Oc5nccc(C)n5)c(F)c4F)cnc23)ccc1C(=O)N[C@@H](C)CNC(=O)[C@@H](N)CCNC(=N)N` [Example 455, N-((S)-1-((S)-2-amino-4-guanidinobutanamido)propan-2-yl)-4-((3-(2,3-difluoro-4-((4-methylpyrimidin-2-yl)oxy)phenyl)imidazo[1,2-a]pyrazin-8-yl)amino)-2-ethylbenzamide formiate 1:2], 720 nM.

For the compound `CCc1cc(Nc2nccn3c(-c4ccc(OC)c(F)c4F)cnc23)ccc1C(=O)N[C@H](CN)C(=O)OC` [Example 310, methyl (2R)-3-amino-2-[[4-[[3-(2,3-difluoro-4-methoxyphenyl)imidazo[1,2-a]pyrazin-8-yl]amino]-2-ethylbenzoyl]amino]propanoate; hydrochloride], the IC90 is 800 nM. With `COc1ccc(-c2cnc3c(Nc4ccc(C(=O)NCCO)cc4)nccn23)cc1Cl` [Example 243, 4-[[3-(3-chloro-4-methoxyphenyl)imidazo[1,2-a]pyrazin-8-yl]amino]-N-(2-hydroxyethyl)benzamide], the IC90 under setting [1] turned out to be 2100 nM. Consider `CCc1cc(Nc2nccn3c(-c4ccc(OC)c(F)c4F)cnc23)ccc1C(=O)N[C@H](CN)CO` [Example 539, N-[(1R)-1-(aminomethyl)-2-hydroxy-ethyl]-4-[[3-(2,3-difluoro-4-methoxy-phenyl)imidazo[1,2-a]pyrazin-8-yl]amino]-2-ethyl-benzamide; formic acid], for which the IC90 was 410 nM. For `CCc1cc(Nc2nccn3c(-c4ccc(OC)c(F)c4F)cnc23)ccc1C(=O)N[C@H](C)CN` [Example 101, (R)-N-(1-aminopropan-2-yl)-4-((3-(2,3-difluoro-4-methoxyphenyl)imidazo [1,2-a]pyrazin-8-yl)amino)-2-ethylbenzamide dihydrochloride], the 90% effect concentration (IC90) under setting [1] worked out at 240 nM.

Consider `CNC(=O)c1ccc(Nc2nccn3c(-c4ccc(OC(F)F)cc4)cnc23)cc1C` [Example 26], for which the IC90 under setting [1] turned out to be 170 nM.

On to `Cc1cc(Nc2nccn3c(-c4ccc(OC(F)F)cc4)cnc23)ccc1C(=O)N(C)CCN1CCOCC1` [Example 250, 4-[[3-[4-(difluoromethoxy)phenyl]im-idazo[1,2-a]pyrazin-8-yl]amino]-N,2-dimethyl-N-(2-morpholin-4-ylethyl)benzamide], for which, under setting [1], the IC90 is 1200 nM. As for `COc1ccc(-c2cnc3c(Nc4ccc(C(=O)N(C)C)cc4)nccn23)cc1` [Example 231, 4-[[3-(4-methoxyphenyl)imidazo[1,2-a]pyrazin-8-yl]amino]-N,N-dimethylbenzamide], the IC90 under setting [1] turned out to be 400 nM.

As for `COc1ccc(-c2cnc3c(Nc4ccc(C(=O)NCC5(O)CCNC5)c(C)c4)nccn23)cc1F` (stereo not drawn) [Example 286, 4-[[3-(3-fluoro-4-methoxyphenyl)imidazo[1,2-a]pyrazin-8-yl]amino]-N-[(3-hydroxypyrrolidin-3-yl)methyl]-2-methylbenzamide;2,2,2-trifluoroacetic acid], under setting [1], the 90% effect concentration (IC90) was determined as 2700 nM.

Consider `Cn1ccc(CNC(=O)c2ccc(Nc3nccn4c(-c5ccc(OCC#N)c(F)c5F)cnc34)cc2Cl)cc1=O` [Example 86, 2-chloro-4-[[3-[4-(cyanomethoxy)-2,3-difluoro-phenyl]imidazo[1,2-a]pyrazin-8-yl]amino]-N-[(1-methyl-2-oxo-4-pyridyl)methyl] benzamide], for which, under setting [1], the IC90 was found to be 140 nM. Consider `COc1ccc(-c2cnc3c(Nc4ccc(C(=O)N(C)CCN5CCNCC5)c(Cl)c4)nccn23)c(F)c1F` [Example 44, 2-chloro-4-[[3-(2,3-difluoro-4-methoxy-phenyl)imidazo[1,2-a]pyrazin-8-yl]amino]-N-methyl-N-(2-piperazin-1-ylethyl)benzamide; 2,2,2-trifluoroacetic acid], for which the IC90 is 120 nM.

For the compound `Cc1cc(Nc2nccn3c(-c4ccc(OC(F)F)cc4)cnc23)ccc1C(=O)NCCCCN1CCOCC1` [Example 197, 4-[[3-[4-(difluoromethoxy)phenyl]im-idazo[1,2-a]pyrazin-8-yl]amino]-2-methyl-N-(4-morpholin-4-ylbutyl)benzamide], the IC90 under setting [1] is 400 nM. Regarding `CC[C@@]1(O)CN[C@H](C(=O)NCCNC(=O)c2ccc(Nc3nccn4c(-c5ccc(OC)c(F)c5F)cnc34)cc2C)C1` [Example 371, (2S,4S)-N-[2-[[4-[[3-(2,3-difluoro-4-methoxyphenyl)imidazo[1,2-a]pyrazin-8-yl]amino]-2-methylbenzoyl]amino]ethyl]-4-ethyl-4-hydroxypyrrolidine-2-carboxamide], the IC90 under setting [1] turned out to be 150 nM. Regarding `C=Cc1cc(Nc2nccn3c(-c4ccc(OC(F)F)cc4)cnc23)ccc1C(=O)NCCN1CCNCC1` [Example 238, 4-[[3-[4-(difluoromethoxy)phenyl]im-idazo[1,2-a]pyrazin-8-yl]amino]-2-ethenyl-N-(2-piperazin-1-ylethyl)benzamide; hydrochlo-ride], under setting [1], the IC90 was 1800 nM.

As for `CCc1cc(Nc2nccn3c(-c4ccc(OC)c(F)c4F)cnc23)ccc1C(=O)NCC1(O)CCNC1` (stereo not drawn) [Example 528, 4-((3-(2,3-difluoro-4-methoxyphenyl)imidazo[1,2-a]pyrazin-8-yl)amino)-2-ethyl-N-((3-hydroxypyrrolidin-3-yl)methyl)benzamide hydrochloride], under setting [1], the 90% effect concentration (IC90) was found to be 250 nM. Turning to `COc1ccc(-c2cnc3c(Nc4ccc(C(=O)N[C@H](C)CN)c(Cl)c4)nccn23)c(F)c1F` [Example 504, #N!-[(2#R!)-1-aminopropan-2-yl]-2-chloro-4-[[3-(2,3-difluoro-4-methoxyphenyl)imidazo[1,2-a]pyrazin-8-yl]amino]benzamide;dihydro-chloride], under setting [1], the IC90 was determined as 100 nM. Take `Cc1cc(Nc2nccn3c(-c4ccc(OC(F)F)cc4)cnc23)ccc1C(=O)N(C)CCCSc1nnnn1C` [Example 178, 4-[[3-[4-(difluoromethoxy)phenyl]im-dazo[1,2-a]pyrazin-8-yl]amino]-N,2-dimethyl-N-[3-(1-methyltetrazol-5-yl)sulfanylpropyl]benzamide]: the IC90 under setting [1] amounted to 1000 nM.

Turning to `Cc1cc(Nc2nccn3c(-c4ccc(OCC#CCN)c(F)c4)cnc23)ccc1C(=O)N(C)C` [Example 313, 4-[[3-[4-(4-aminobut-2-ynoxy)-3-fluorophenyl]imidazo[1,2-a]pyrazin-8-yl]amino]-N,N,2-trimethylbenzamide], the IC90 under setting [1] came out at 1200 nM.
